pIC50: −log10 of the molar value.
Legend:
CYP2D6 = molecular target: T1, CYP2D6 (Homo sapiens, UniProt P10635); assay: CYP inhibition assay in human liver microsome; type: in vitro ADME; details: human liver microsomes, probe dextromethorphan, 10µM test compound, dextromethorphan substrate, <0: not or weak inhibitor, read-out: CYP 2D6 inhibition %@10µM
T1 construct: tissue BD-Gentest 452117; host or cells: human liver microsomes
Experimental: This is a high throughput screening assay used for assessment of reversible inhibition of CYP2D6 activity of test compounds in human liver microsome (HLM) in early discovery stage. Table 4. Chemicals and materials used in the CYP inhibition assay
10 mM DMSO stock solutions of test compounds were diluted in DMSO to generate 2 mM intermediate stock solution. 250 nL of intermediate stock solution were transferred in duplicate into 3 separate 384 well microtitre plates (assay-ready plates). A mixture of HLM and each substrate was made up. 45 µL of HLM substrate mix was then transferred to each well of an assay ready plate and mixed. The negative (solvent) and positive control (standard inhibitor for CYP 2D6) were included in each assay ready plate. The assay ready plate was warmed to 37 °C in an incubator over 10 minutes. 5 µL pre-warmed NADPH regenerating system was added to each incubation well to start the reaction. Final incubation volume was 50 µL. The assay plate then was placed back in the 37 °C incubator. After 10-minute incubation, incubates were quenched by addition of 50 µL 100% acetonitrile containing internal standards (20 ng/mL D3-Dextrorphan). The supernatants were collected for RapidFire/MS/MS analysis.
RapidFire online solid phase extraction/sample injection system (Agilent) coupled with API4000 triple quadrupole mass spectrometer (AB Sciex) were used for sample analysis. The mobile phase composed of acetonitrile and water supplemented with 0.1% formic acid. A C4 solid phase extraction cartridge is used for sample separation. MS detection is achieved in positive ion MRM mode.
Peak areas for substrate, metabolite and internal standard are determined using the RapidFire integrator software (version 3.6.12009.12296). Peak area ratios (PAR) of metabolite and internal standard (stable-labelled metabolite) are then calculated. The measurement window for each experiment is then defined: • PAR (0% activity)= average PAR for all incubations containing concentrated inhibitor; • Par (100% activity)= average PAR for all incubations containing no inhibitor (DMSO controls); • % Activity (test inhibitor) • =[PAR(test inhibitor)-PAR(0% activity)]/[PAR(100% activity)-PAR(0% activity)]; • % Inhibition (test inhibitor)=100-% Activity (test inhibitor).

hTLR7 = molecular target: T2, hTLR7 (Homo sapiens, UniProt Q9NYK1); assay: HEK293-Blue-hTLR-7 cells assay (SEAP reporter, R848 stimulation); type: cell-based; set-up: host or cells: HEK293 (HEK-Blue); details: HEK293-Blue-hTLR7 cells, R848, 20 hrs; read-out: HEK/hTLR7 IC50
T2 sequence (Q9NYK1 27-1049): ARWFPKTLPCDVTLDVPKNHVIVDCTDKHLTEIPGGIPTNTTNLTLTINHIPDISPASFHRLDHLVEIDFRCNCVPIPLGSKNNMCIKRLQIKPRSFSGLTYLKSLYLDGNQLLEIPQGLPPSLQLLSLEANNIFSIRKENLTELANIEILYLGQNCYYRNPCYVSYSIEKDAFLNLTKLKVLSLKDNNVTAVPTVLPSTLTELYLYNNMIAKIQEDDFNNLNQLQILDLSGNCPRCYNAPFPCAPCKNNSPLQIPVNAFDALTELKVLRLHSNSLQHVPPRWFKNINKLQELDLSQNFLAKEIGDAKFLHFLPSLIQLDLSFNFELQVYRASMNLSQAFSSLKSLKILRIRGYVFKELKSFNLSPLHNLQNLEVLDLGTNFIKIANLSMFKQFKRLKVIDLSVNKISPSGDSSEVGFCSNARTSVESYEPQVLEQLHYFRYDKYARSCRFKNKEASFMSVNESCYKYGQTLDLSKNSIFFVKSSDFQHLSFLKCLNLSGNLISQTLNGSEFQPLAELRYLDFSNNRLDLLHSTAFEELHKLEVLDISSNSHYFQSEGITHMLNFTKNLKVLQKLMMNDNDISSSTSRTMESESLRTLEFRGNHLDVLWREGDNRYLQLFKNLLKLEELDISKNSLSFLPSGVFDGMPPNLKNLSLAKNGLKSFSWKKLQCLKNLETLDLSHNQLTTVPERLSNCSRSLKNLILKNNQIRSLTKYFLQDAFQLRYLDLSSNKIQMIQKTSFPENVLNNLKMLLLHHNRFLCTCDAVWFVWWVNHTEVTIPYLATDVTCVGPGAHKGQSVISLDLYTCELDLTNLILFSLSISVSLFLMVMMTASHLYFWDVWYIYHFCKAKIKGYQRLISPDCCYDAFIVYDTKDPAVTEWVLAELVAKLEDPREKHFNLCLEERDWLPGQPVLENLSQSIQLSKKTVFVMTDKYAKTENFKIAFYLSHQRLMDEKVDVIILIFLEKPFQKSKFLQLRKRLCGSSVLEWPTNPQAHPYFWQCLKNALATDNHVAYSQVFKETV
From the text: A stable HEK293-Blue-hTLR-7 cell line was purchased from InvivoGen (Cat.#: hkb-htlr7, San Diego, California, USA). These cells were originally designed for studying the stimulation of human TLR7 by monitoring the activation of NF-κB. A SEAP (secreted embryonic alkaline phosphatase) reporter gene was placed under the control of the IFN-β minimal promoter fused to five NF-κB and AP-1-binding sites. The SEAP was induced by activating NF-xB and AP-1 via stimulating HEK-Blue hTT,R7 cells with TLR7 ligands. Therefore, the reporter expression was declined by TLR7 antagonist under the stimulation of a ligand, such as R848 (Resiquimod), for incubation of 20 hrs. The cell culture supernatant SEAP reporter activity was determined using QUANTI-Blue™ kit (Cat.#: rep-qb1, Invivogen, San Diego, Ca, USA) at a wavelength of 640 nm, a detection medium that turns purple or blue in the presence of alkaline phosphatase.
HEK293-Blue-hTLR7 cells were incubated at a density of 250,000-450,000 cells/mL in a volume of 170 µL in a 96-well plate in Dulbecco's Modified Eagle's medium (DMEM) containing 4.5 g/L glucose, 50 U/mL penicillin, […], […], 2 mM L-glutamine, 10% (v/v) heat-inactivated fetal bovine serum with addition of 20 µL test compound in a serial dilution in the presence of final DMSO at 1% and 10 µL of 20uM R848 in above DMEM, perform incubation under 37 °C in a CO2 incubator for 20 hrs. Then 20 µL of the supernatant from each well was incubated with 180 µL Quanti-blue substrate solution at 37 °C for 2 hrs and the absorbance was read at 620-655 nm using a spectrophotometer. The signaling pathway that TLR7 activation leads to downstream NF-xB activation has been widely accepted, and therefore similar reporter assay was modified for evaluating TLR7 antagonist.

T1 sequence (P10635 whole entry): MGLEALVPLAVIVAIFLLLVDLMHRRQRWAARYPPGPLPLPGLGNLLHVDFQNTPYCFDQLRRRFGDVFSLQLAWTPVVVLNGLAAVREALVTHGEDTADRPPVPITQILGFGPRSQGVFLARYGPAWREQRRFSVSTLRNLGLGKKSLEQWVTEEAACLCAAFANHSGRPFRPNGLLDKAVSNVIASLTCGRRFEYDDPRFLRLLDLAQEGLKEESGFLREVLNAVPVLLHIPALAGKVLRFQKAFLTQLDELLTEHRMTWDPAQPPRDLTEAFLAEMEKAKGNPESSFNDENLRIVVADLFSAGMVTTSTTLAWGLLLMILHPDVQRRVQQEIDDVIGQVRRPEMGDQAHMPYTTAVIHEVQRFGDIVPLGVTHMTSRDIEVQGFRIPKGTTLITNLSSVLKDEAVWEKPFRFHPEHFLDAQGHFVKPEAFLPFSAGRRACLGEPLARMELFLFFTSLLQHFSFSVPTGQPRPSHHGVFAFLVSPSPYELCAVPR

| SMILES | inhibition at 10 min, 10 µM (CYP2D6) [%] | pIC50 (hTLR7) |
| --- | --- | --- |
| C[C@@H]1CN(c2ccc(C#N)c3ncccc23)C[C@H](CN2C[C@H]3CN(c4ccc5c(n4)CCNC5)CC[C@H]32)O1 (single isomer, unassigned) [Example 55] | 10.5 | 8.40 |
| C[C@@H]1CN(c2ccc(C#N)c3ncccc23)C[C@H](CN2CCN(c3cnc4c(c3)CN[C@@H]4C)CC2)O1 (single isomer, unassigned) [Example 68] | 6 | 7.89 |
| C[C@@H]1CN(c2ccc(C#N)c3ncccc23)C[C@H](CN2CCN(c3cc4c(cn3)[C@@H](C)NCC4)CC2)O1 (single isomer, unassigned) [Example 73] | 6 | 7.77 |
| C[C@@H]1CN(c2ccc(C#N)c3ncccc23)C[C@H](CN2CCN(c3cc4c(cn3)CCN[C@@H]4C)CC2)O1 (single isomer, unassigned) [Example 74] | 6 | 8.15 |
| C[C@@H]1CN(c2ccc(C#N)c3ncccc23)C[C@H](CN2CCN(c3cc4c(cn3)C[C@H](C)NC4)CC2)O1 (single isomer, unassigned) [Example 76] | 6 | 7.85 |
| C[C@@H]1CN(c2ccc(C#N)c3nccnc23)C[C@H](CN2CCN(c3ccc4c(n3)CN[C@H]4C)CC2)O1 (single isomer, unassigned) [Example 78] | 0.5 | 8.30 |
| C[C@@H]1CN(c2ccc(C#N)c3nccnc23)C[C@H](CN2CCN(c3ccc4c(n3)CN[C@@H]4C)CC2)O1 (single isomer, unassigned) [Example 79] | 5.5 | 8.10 |
| C[C@@H]1CN(c2ccc(C#N)c3nccnc23)C[C@H](CN2CCN(c3cc4c(cn3)C[C@H](C)NC4)CC2)O1 (single isomer, unassigned) [Example 81] | 3.5 | 8.30 |
| C[C@@H]1Cc2cc(N3CCN(C[C@H]4CN(c5ccc(C#N)c6nccnc56)C[C@@H](C)O4)CC3)ncc2CN1 (single isomer, unassigned) [Example 83] | -8 | 8.22 |
| C[C@@H]1CN(c2ccc(C#N)c3nccnc23)C[C@H](CN2CCN(c3cc4c(cn3)CN[C@@H](C)C4)CC2)O1 (single isomer, unassigned) [Example 84] | -1.5 | 8.15 |
| C[C@@H]1CN(c2ccc(C#N)c3ncccc23)C[C@H](CN2CC3[C@H](C2)OCCN3c2ccc3c(n2)CCNC3)O1 (stereo in doubt) [Example 53, cis-5-[(2R,6S)-2-methyl-6-[[4-(5,6,7,8-tetrahydro-1,6-naphthyridin-2-yl)-2,3,4a,5,7,7a-hexahydropyrrolo[3,4-b][1,4]oxazin-6-yl]methyl]morpholin-4-yl]quinoline-8-carbonitrile] | 24 | 8.52 |
| C[C@@H]1CN(c2ccc(C#N)c3ncccc23)C[C@H](CN2CCN(c3cccc4c3CNC4)CC2)O1 [Example 2, 5-[(2S,6R)-2-[(4-isoindolin-4-ylpiperazin-1-yl)methyl]-6-methyl-morpholin-4-yl] quinoline-8-carbonitrile] | -5 | 8.40 |
| C[C@@H]1CN(c2ccc(C#N)c3ncccc23)C[C@H](CN2CCN(c3ccc4c(c3)CCNC4)CC2)O1 [Example 5, 5-[(2R,6S)-2-methyl-6-[[4-(1,2,3,4-tetrahydroisoquinolin-6-yl)piperazin-1-yl]methyl]morpholin-4-yl]quinoline-8-carbonitrile] | 0.5 | 7.51 |
| C[C@@H]1CN(c2ccc(C#N)c3ncccc23)C[C@H](CN2CCN(c3ccc4c(c3)CNC4)CC2)O1 [Example 7, 5-[(2S,6R)-2-[(4-isoindolin-5-ylpiperazin-1-yl)methyl]-6-methyl-morpholin-4-yl] quinoline-8-carbonitrile] | 15 | 7.41 |
| C[C@@H]1CN(c2ccc(C#N)c3ncsc23)C[C@H](CN2CCN(c3cnc4c(c3)CNC4)CC2)O1 [Example 8, 7-[(2S,6R)-2-[[4-(6,7-dihydro-5H-pyrrolo[3,4-b]pyridin-3-yl)piperazin-1-yl]methyl]-6-methyl-morpholin-4-yl]-1,3-benzothiazole-4-carbonitrile] | 13 | 8.00 |
| C[C@@H]1CN(c2ccc(C#N)c3ncccc23)C[C@H](CN2CCN(c3ncnc4c3CNCC4)CC2)O1 [Example 61, 5-[(2R,6S)-2-methyl-6-[[4-(5,6,7,8-tetrahydropyrido[4,3-d]pyrimidin-4-yl)piperazin-1-yl]methyl]morpholin-4-yl]quinoline-8-carbonitrile] |  | 8.30 |
| C[C@@H]1CN(c2ccc(C#N)c3ncccc23)C[C@H](CN2CCN(c3nccc4c3CCNC4)CC2)O1 [Example 62, 5-[(2R,6S)-2-methyl-6-[[4-(5,6,7,8-tetrahydro-2,6-naphthyridin-1-yl)piperazin-1-yl]methyl]morpholin-4-yl]quinoline-8-carbonitrile] |  | > 8.52 |
| COc1ccc(N2CCN(C[C@H]3CN(c4ccc(C#N)c5ncccc45)C[C@@H](C)O3)CC2)cc1 [Example R1, 5-[(2S,6R)-2-[[4-(4-methoxyphenyl)piperazin-1-yl]methyl]-6-methyl-morpholin-4-yl]quinoline-8-carbonitrile, reference compound] |  | 7.02 |
| C[C@@H]1CN(c2ccc(C#N)c3ncccc23)C[C@H](CN2CCN(c3ccc(Cl)cc3)CC2)O1 [Example R2, 5-[(2S,6R)-2-[[4-(4-chlorophenyl)piperazin-1-yl]methyl]-6-methyl-morpholin-4-yl]quinoline-8-carbonitrile, reference compound] |  | 6.68 |

— patent EP3807270B1, “NOVEL HETEROARYL HETEROCYCLYL COMPOUNDS FOR THE TREATMENT OF AUTOIMMUNE DISEASE” (F. Hoffmann-La Roche AG, priority 2018, dated 2019)
